Laboratory results reported in publication PMC6476926, “Dichloro-Phenyl-Benzotriazoles: A New Selective Class of Human Respiratory Syncytial Virus Entry Inhibitors” (Frontiers in Chemistry, 2019).

Columns and labels:
[1] = tested on: RSV; assay: microbe, parasite or virus in culture; type: cell-based, Human Respiratory Syncytial Virus (RSV) strain A2; conditions: human respiratory syncytial virus, Vero 76, read-out: EC50 RSV
[2] = tested on: HIV-1IIIB; assay: microbe, parasite or virus in culture; type: cell-based, Human Immunodeficiency Virus type-1 (HIV-1); conditions: Human immunodeficiency virus 1, MT4, read-out: EC50 HIV-1IIIB
[3] = tested on: BVDV; assay: microbe, parasite or virus in culture; type: cell-based; conditions: Bovine viral diarrhea virus isolates and strains, MDBK, read-out: EC50 BVDV
[4] = tested on: YFV; assay: microbe, parasite or virus in culture; type: cell-based; conditions: Yellow fever virus, BHK, read-out: EC50 YFV
[5] = tested on: Reo-1; assay: microbe, parasite or virus in culture; type: cell-based, Reovirus type-1 (Reo-1); conditions: Reovirus sp., BHK, read-out: EC50 Reo-1
[6] = tested on: CV-B5; assay: microbe, parasite or virus in culture; type: cell-based, Human Enterovirus B [coxsackie type B5 (CV-B5)]; conditions: Enterovirus B, CVB5, Vero 76, read-out: EC50 CV-B5
[7] = tested on: Sb-1, VSV, VV, HSV-1; assay: organism not typed; type: cell-based; conditions: Vero 76, read-out: EC50 Sb-1, VSV, VV, HSV-1
[8] = in vitro; conditions: cattle (Bos taurus)
[9] = Cytotoxicity, MTT method, BHK cells; conditions: Syrian hamster (Mesocricetus auratus)
[10] = Cytotoxicity, MTT method, MT-4 cells; conditions: human
[11] = Cytotoxicity, MTT method, Vero-76 cells; conditions: African green monkey (Cercopithecus aethiops)

Row | SMILES | EC50 [1] | EC50 [2] | EC50 [3] | EC50 [4] | EC50 [5] | EC50 [6] | EC50 [7] | melting point | CC50 [8] | CC50 [9] | CC50 [10] | CC50 at 5 days [11] | CC50 [11]
1 | O=C(Nc1ccc(-n2nc3cc(Cl)c(Cl)cc3n2)cc1)c1ccc([N+](=O)[O-])cc1 [8e, N-[4-(5,6-dichloro-2H-benzo[d][1,2,3]triazol-2-yl)phenyl]-4-nitrobenzamide] | 33 µM | > 100 µM | 4 µM | > 68 µM | > 68 µM | > 100 µM | > 100 µM | > 297 °C | > 100 µM | 68 µM | > 100 µM | > 100 µM | –
2 | O=C(Nc1ccccc1)Nc1ccc(-n2nc3cc(Cl)c(Cl)cc3n2)cc1 [10e, 1-[4-(5,6-dichloro-2H-benzo[d][1,2,3]triazol-2-yl)phenyl]-3-phenylurea] | > 100 µM | > 100 µM | > 100 µM | > 100 µM | > 100 µM | > 100 µM | > 100 µM | > 290 °C | > 100 µM | > 100 µM | > 100 µM | > 100 µM | –
3 | N#Cc1ccc(C(=O)Nc2ccc(-n3nnc4cc(Cl)c(Cl)cc43)cc2)cc1 [7h, N-[4-(5,6-dichloro-1H-benzo[d][1,2,3]triazol-1-yl)phenyl] 4-cyanobenzamide] | 11 µM | > 100 µM | > 100 µM | > 100 µM | > 100 µM | > 100 µM | > 100 µM | 227 to 229 °C | > 100 µM | > 100 µM | > 100 µM | > 100 µM | –
4 | CCCC(=O)N(C(=O)CCC)c1ccc(-n2nc3cc(Cl)c(Cl)cc3n2)cc1 [6f, N-butyryl-N-[4-(5,6-dichloro-2H-benzo[d][1,2,3]triazol-2-yl)phenyl] butyramide] | 6 µM | > 24 µM | > 84 µM | > 62 µM | > 26 µM | 33 µM | > 100 µM | 130 to 133 °C | 84 µM | 62 µM | 24 µM | > 100 µM | –
5 | COc1ccc(C(=O)Nc2ccc(-n3nnc4cc(Cl)c(Cl)cc43)cc2)cc1 [7c, N-[4-(5,6-dichloro-1H-benzo[d][1,2,3]triazol-1-yl)phenyl]-4-methoxybenzamide] | 35 µM | > 33 µM | > 100 µM | > 100 µM | > 100 µM | > 100 µM | > 100 µM | 193 to 195 °C | > 100 µM | > 100 µM | 33 µM | > 100 µM | –
6 | O=C(Nc1ccc(-n2nc3cc(Cl)c(Cl)cc3n2)cc1)Nc1cccc2ccccc12 [10k, 1-[4-(5,6-dichloro-2H-benzo[d][1,2,3]triazol-2-yl)phenyl]-3-naphtylurea] | > 100 µM | > 100 µM | > 100 µM | > 100 µM | > 100 µM | > 100 µM | > 100 µM | > 290 °C | > 100 µM | > 100 µM | > 100 µM | > 100 µM | –
7 | CCNC(=O)Nc1ccc(-n2nc3cc(Cl)c(Cl)cc3n2)cc1 [10a, 1-[4-(5,6-dichloro-2H-benzo[d][1,2,3]triazol-2-yl)phenyl]-3-ethylurea] | > 100 µM | > 100 µM | > 100 µM | > 100 µM | > 100 µM | > 100 µM | > 100 µM | > 290 °C | > 100 µM | > 100 µM | > 100 µM | > 100 µM | –
8 | O=C(Nc1ccc(Cl)cc1)Nc1ccc(-n2nc3cc(Cl)c(Cl)cc3n2)cc1 [10h, 1-[4-(5,6-dichloro-2H-benzo[d][1,2,3]triazol-2-yl)phenyl]-3-(4-chlorophenyl)urea] | > 100 µM | > 100 µM | > 100 µM | > 100 µM | > 100 µM | > 100 µM | > 100 µM | > 290 °C | > 100 µM | > 100 µM | > 100 µM | > 100 µM | –
9 | CCC(=O)Nc1ccc(-n2nnc3cc(Cl)c(Cl)cc32)cc1 [5b, N-[4-(5,6-dichloro-1H-benzo[d][1,2,3]triazol-1-yl)phenyl]propionamide] | 4 µM | > 28 µM | > 100 µM | > 54 µM | > 54 µM | > 30 µM | > 30 µM | 175 to 177 °C | > 100 µM | 54 µM | 28 µM | 30 µM | –
10 | CCCCNC(=O)Nc1ccc(-n2nc3cc(Cl)c(Cl)cc3n2)cc1 [10c, 1-[4-(5,6-dichloro-2H-benzo[d][1,2,3]triazol-2-yl)phenyl]-3-butylurea] | > 100 µM | > 100 µM | > 100 µM | > 100 µM | > 100 µM | > 95 µM | > 95 µM | > 300 °C | > 100 µM | > 100 µM | > 100 µM | > 100 µM | 90 µM
11 | CC(=O)Nc1ccc(-n2nnc3cc(Cl)c(Cl)cc32)cc1 [5a, N-[4-(5,6-dichloro-1H-benzo[d][1,2,3]triazol-1-yl)phenyl]acetamide] | 3 µM | > 35 µM | > 43 µM | > 53 µM | > 53 µM | 17 µM | > 30 µM | 209 to 211 °C | 43 µM | 53 µM | 35 µM | 30 µM | –
12 | CCCC(=O)Nc1ccc(-n2nnc3cc(Cl)c(Cl)cc32)cc1 [5c, N-[4-(5,6-dichloro-1H-benzo[d][1,2,3]triazol-1-yl)phenyl]butanamide] | 4 µM | > 60 µM | > 100 µM | > 100 µM | > 100 µM | 9 µM | > 100 µM | 202 to 204 °C | > 100 µM | > 100 µM | 60 µM | 10 µM | –
13 | O=C(Nc1ccc(-n2nc3cc(Cl)c(Cl)cc3n2)cc1)c1ccc(C(F)(F)F)cc1 [8g, N-[4-(5,6-dichloro-2H-benzo[d][1,2,3]triazol-2-yl)phenyl]-4-(trifluoromethyl)benzamide] | 50 µM | > 100 µM | 28 µM | > 100 µM | > 100 µM | > 100 µM | > 100 µM | 210 to 212 °C | > 100 µM | > 100 µM | > 100 µM | > 100 µM | –
14 | COc1cc(C(=O)Nc2ccc(-n3nnc4cc(Cl)c(Cl)cc43)cc2)cc(OC)c1OC [7d, N-[4-(5,6-dichloro-1H-benzo[d][1,2,3]triazol-1-yl)phenyl]-3,4,5-trimethoxybenzamide] | 5 µM | > 77 µM | > 100 µM | 78 µM | > 100 µM | > 90 µM | > 90 µM | 212 to 213 °C | > 100 µM | > 100 µM | 77 µM | 90 µM | –
